Results as given in patent US9809623B2, “α4β7 peptide monomer and dimer antagonists” (Protagonist Therapeutics, Inc., priority 2014, dated 2017).
Numbered stars: 1 amine (or outer) side, 2 acyl side, 3 side chain; on linkers, the order of the positions; unused ones are H or OH. Bridge positions count the residues as written; N and C are the ends. Square brackets hold non-standard residues; d marks the D form. Peptide text beside a SMILES is read from it. I, II: the chains in the order shown. Phe(4-tBu) = CC(C)(C)c1ccc(C[C@H](N)C(=O)O)cc1; Diglycolyl = O=C(COCC(=O)[*:2])[*:1]; NMeR = CN[C@@H](CCCNC(=N)N)C(=O)O; β3hE = N[C@@H](CCC(=O)O)CC(=O)O; Pen = CC(C)(S)[C@H](N)C(=O)O

Key:
Intestinal Wash Assay = format: in vitro ADME; parameters: dose or concentration left out as unconfirmed; settings: rat, rat intestinal wash fluid (small intestine); Table 4-C, t1/2
Method: Intestinal wash assay solution was prepared from rats fasted for at least 6 hours prior. The animals were euthanized and a midline incision was made from the point of the jaw to the pubis. The abdomen and chest were opened by making 2 incisions through the anterior chest wall on either side. Hemostats were used to clamp off both ends of the animal's stomach—where the esophagus meets the stomach and where the stomach meets the duodenum. A hemostat was also used to clamp 2-3 cm down the intestine from where the stomach meets the duodenum.
Intestinal wash assay solution was prepared by separating 20 cm of the small intestine from the body. Once separated 20 cm, the end was clamped with a hemostat and the section cut from the body, leaving the hemostats in place on the removed section. 1 mL of chilled saline was drawn up with a 1 mL syringe. One end of the intestine was held up and the clamp removed. Approximately 2-2.5 cm of the gavage needle was inserted into the intestine, and the saline was slowly injected. The fluid was massaged down the length of the intestine using gloved fingers. The gavage needle was removed and the clamp was replaced on the end of the intestine. The intestine was sat straight and a q-tip was run firmly up and down the length of the outside of the intestine approximately 3-6 times to mix the enzymes with the saline. One end of the intestine was held up and some of the fluid was carefully moved at the top down. The clamp was removed and that end of the intestine was set into a small weigh boat on ice. The other end of the intestine was carefully picked up and held vertically. Gloved fingers were gently run down it to squeeze the fluid into the container. The previous steps saline injection and fluid procurement steps were repeated twice using only 0.5 mL of chilled saline. The sample was pipetted from the weigh boat into a centrifuge tube and placed on ice. All intestinal wash samples were spun down in a cold centrifuge at 12,000×g for 10 minutes. The supernatant from the top of each centrifuged sample was pipetted into cryotubes, and kept on ice until use.
Intestinal wash assays were performed using intestinal wash assay solution prepared as described above. A sufficient amount of rat intestinal wash was thawed. For each sample, 200 uL of rat intestinal wash fluid was pipetted into 1.5 mL Eppendorf tubes (number of tubes for experiment=number of test peptides×N). The tubes were pre-incubated for about 10 minutes in a water bath at 37° C.
Peptide working solutions ([…]) were prepared by combining 2 μl of 10 mM DMSO stock with 128 μl 100 mM Tris pH 7.5.
Peptide quench solvent (50% ACN-50% MeOH-5% Formic Acid)+IS (5 ug/ml; 1 ul of 10 mg/mL IS per 2 mL quench solvent) was prepare and a quench plate prepared and placed on ice. 200 ul of quench solution was added to each well of the quench plate for T=0, 10, 20, 30, 60 and 180 min collection.
For each test sample and a positive control, 30 ul of peptide working solution was added to a tube of intestinal wash fluid. The tube was gently vortexed and 30 ul was immediately removed and quenched in T=0 well of quench plate (pipetted directly into the quench solution). This well was covered tightly to prevent evaporation. 30 ul aliquots were removed at T=10 min, T=20 min, T=30 min, T=60 min, and T=180 min, and quenched. When all time points were collected, the quench plate was centrifuged at 10,000 rpm for 10 minutes. 150 uL of each supernatant was transferred to a polypropylene 96-well collection plate. 300 ul Mobile Phase A was added to each collection, and LC/MS/MS analysis was performed to determine the amount or concentration of peptide remaining in each test sample and positive control.

[1] = Cysteine/Cystine Redox Stability Assay; format: physicochemical; settings: Table 4-C; ORP where half of the oxidized peptide remains
Method: Peptides were diluted to 90 μM by adding 4.545 μl of a 10 mM peptide DMSO stock to 495.45 μl of 100 mM Tris-Cl, pH 7.5. Aliquots of […] were transferred to 8 wells down a column of a 96 well plate. 20 μl of 2.5 mM Cystine in 100 mM Tris-Cl, pH 7.5 was added to each well. Cysteine stock solutions in 100 mM Tris-Cl, pH 7.5 were prepared fresh at the following concentrations: 400 mM, 200 mM, 80 mM, 44 mM, 22 mM, 11 mM, 5.5 mM and blank. At time 0, 25 μl of each cysteine stock solution was added to the 55 μl of cystine/peptide solution, and the mixture was incubated at room temperature for 40 min. The samples were quenched by adding 20 μl of 5M acetic acid and analyzed by reverse phase HPLC. The fraction of oxidized peptide was calculated and plotted against the calculated oxidation reduction potential (ORP) as defined by the Nernst equation. The ORP where half of the oxidized peptide remains is shown below.

[2] = system: BALB/c mice, chronic DSS colitis; assay: 15 day chronic DSS colitis mouse model; format: in vivo; settings: 10 mg/kg PO BID plus 0.2 mg/ml in drinking water
Method: To further evaluate the efficacy of peptides of the present invention in treating colitis, a chronic DSS colitis mouse model was used to examine the effects of orally administered Peptide X or another peptide, Peptide XX, as compared to vehicle control or the antibodies, MECA 367 and DATK32. Peptide XX is a dimer having the following structure, where DIG links the two peptide monomers by their C-termini:
In this 15 day chronic DSS colitis study, BALB/c mice were treated continuously with 2.5% DSS. Peptide X dosing was 55 mg/kg/day, 17 mg/kg/day or 6 mg/kg/day in drinking water. Peptide XX dosing was 10 mg/kg PO BID plus 0.2 mg/ml in drinking water. The anti-α4β7 Ab DATK32 was dosed 25 mg/kg IP every 3 days, and the anti-MAdCAM Ab MECA 367 was dosed 8 mg/kg IP daily. After takedown, distal colon sections were fixed for histopathology and processed for β7+ cell IH staining using the anti-β7 antibody M293.

In the case of `CC(=O)N[C@@H]1C(=O)N(C)[C@@H](CCCNC(=N)N)C(=O)N[C@@H](CO)C(=O)N[C@@H](CC(=O)O)C(=O)N[C@@H]([C@@H](C)O)C(=O)N[C@@H](CC(C)C)C(=O)N[C@H](C(=O)N[C@@H](Cc2ccc(C(C)(C)C)cc2)C(=O)N[C@@H](CCC(=O)O)CC(=O)N[C@H](CCCCNC(=O)COCC(=O)NCCCC[C@@H](NC(=O)C[C@H](CCC(=O)O)NC(=O)[C@H](Cc2ccc(C(C)(C)C)cc2)NC(=O)[C@H]2NC(=O)[C@H](CC(C)C)NC(=O)[C@H]([C@@H](C)O)NC(=O)[C@H](CC(=O)O)NC(=O)[C@H](CO)NC(=O)[C@H](CCCNC(=N)N)N(C)C(=O)[C@@H](NC(C)=O)C(C)(C)SSC2(C)C)C(N)=O)C(N)=O)C(C)(C)SSC1(C)C` [compound 218, [Ac-Pen-(N-Me-Arg)-Ser-Asp-Thr-Leu-Pen-Phe(4-tBu)-(β-homoGlu)-(D-Lys)-NH2]2-DIG] (I: Ac-[Pen][NMeR]SDTL[Pen][Phe(4-tBu)][β3hE][dK]-NH2 / II: Ac-[Pen][NMeR]SDTL[Pen][Phe(4-tBu)][β3hE][dK]-NH2; disulfide I:1-I:7, II:1-II:7; linker I:10-II:10 via Diglycolyl), the half-life (Intestinal Wash Assay) is reported as over 6 h and the “Cys/CySS (mV)” value [1] is reported as under −300 mV.
With `CC(=O)N[C@@H]1C(=O)N(C)[C@@H](CCCNC(=N)N)C(=O)N[C@@H](CO)C(=O)N[C@@H](CC(=O)O)C(=O)N[C@@H]([C@@H](C)O)C(=O)N[C@@H](CC(C)C)C(=O)N[C@H](C(=O)N[C@@H](Cc2c[nH]c3ccccc23)C(=O)N[C@H](CCCCNC(=O)COCC(=O)NCCCC[C@@H](NC(=O)[C@H](Cc2c[nH]c3ccccc23)NC(=O)[C@H]2NC(=O)[C@H](CC(C)C)NC(=O)[C@H]([C@@H](C)O)NC(=O)[C@H](CC(=O)O)NC(=O)[C@H](CO)NC(=O)[C@H](CCCNC(=N)N)N(C)C(=O)[C@@H](NC(C)=O)C(C)(C)SSC2(C)C)C(N)=O)C(N)=O)C(C)(C)SSC1(C)C` [compound 209, (Ac-Pen-N-Me-R-S-D-T-L-Pen-W-k-NH2)2-DIG] (I: Ac-[Pen][NMeR]SDTL[Pen]W[dK]-NH2 / II: Ac-[Pen][NMeR]SDTL[Pen]W[dK]-NH2; disulfide I:1-I:7, II:1-II:7 (inferred); linker I:9-II:9 via Diglycolyl (inferred)) the half-life (Intestinal Wash Assay) was over 3 h and the “Cys/CySS (mV)” value [1] was under −300 mV.
In the case of `CC(=O)N[C@@H]1C(=O)N[C@@H](CCCNC(=N)N)C(=O)N[C@@H](CO)C(=O)N[C@@H](CC(=O)O)C(=O)N[C@@H]([C@@H](C)O)C(=O)N[C@@H](CC(C)C)C(=O)N[C@H](C(=O)N[C@H](CCCCNC(=O)COCC(=O)NCCCC[C@@H](NC(=O)[C@@H]2CSSC(C)(C)[C@H](NC(C)=O)C(=O)N[C@@H](CCCNC(=N)N)C(=O)N[C@@H](CO)C(=O)N[C@@H](CC(=O)O)C(=O)N[C@@H]([C@@H](C)O)C(=O)N[C@@H](CC(C)C)C(=O)N2)C(N)=O)C(N)=O)CSSC1(C)C` [compound 207, (Ac-Pen-R-S-D-T-L-C-k-NH2)2-DIG] (I: Ac-[Pen]RSDTLC[dK]-NH2 / II: Ac-[Pen]RSDTLC[dK]-NH2; disulfide I:1-I:7, II:1-II:7 (inferred); linker I:8-II:8 via Diglycolyl (inferred)), the half-life (Intestinal Wash Assay) is reported as under 0.167 h and the “Cys/CySS (mV)” value [1] is reported as −173 mV.
With `CC(=O)N[C@@H]1C(=O)N(C)[C@@H](CCCNC(=N)N)C(=O)N[C@@H](CO)C(=O)N[C@@H](CC(=O)O)C(=O)N[C@@H]([C@@H](C)O)C(=O)N[C@@H](CC(C)C)C(=O)N[C@H](C(=O)N[C@@H](Cc2c[nH]c3ccccc23)C(=O)N[C@@H](CCC(=O)O)C(=O)N[C@H](CCCCNC(=O)COCC(=O)NCCCC[C@@H](NC(=O)[C@H](CCC(=O)O)NC(=O)[C@H](Cc2c[nH]c3ccccc23)NC(=O)[C@H]2NC(=O)[C@H](CC(C)C)NC(=O)[C@H]([C@@H](C)O)NC(=O)[C@H](CC(=O)O)NC(=O)[C@H](CO)NC(=O)[C@H](CCCNC(=N)N)N(C)C(=O)[C@@H](NC(C)=O)C(C)(C)SSC2(C)C)C(N)=O)C(N)=O)C(C)(C)SSC1(C)C` [compound 217, (Ac-Pen-N-Me-R-S-D-T-L-Pen-W-E-k-NH2)2-DIG] (I: Ac-[Pen][NMeR]SDTL[Pen]WE[dK]-NH2 / II: Ac-[Pen][NMeR]SDTL[Pen]WE[dK]-NH2; disulfide I:1-I:7, II:1-II:7 (inferred); linker I:10-II:10 via Diglycolyl (inferred)) the half-life (Intestinal Wash Assay) was over 3 h and the “Cys/CySS (mV)” value [1] was under −300 mV.
For `CC(=O)N[C@H]1CSSC(C)(C)[C@@H](C(=O)N[C@@H](Cc2c[nH]c3ccccc23)C(=O)N[C@H](CCCCNC(=O)COCC(=O)NCCCC[C@@H](NC(=O)[C@H](Cc2c[nH]c3ccccc23)NC(=O)[C@H]2NC(=O)[C@H](CC(C)C)NC(=O)[C@H]([C@@H](C)O)NC(=O)[C@H](CC(=O)O)NC(=O)[C@H](CO)NC(=O)[C@H](CCCNC(=N)N)N(C)C(=O)[C@@H](NC(C)=O)CSSC2(C)C)C(N)=O)C(N)=O)NC(=O)[C@H](CC(C)C)NC(=O)[C@H]([C@@H](C)O)NC(=O)[C@H](CC(=O)O)NC(=O)[C@H](CO)NC(=O)[C@H](CCCNC(=N)N)N(C)C1=O` [compound 204, (Ac-C-N-Me-R-S-D-T-L-Pen-W-k-NH2)2-DIG] (I: Ac-C[NMeR]SDTL[Pen]W[dK]-NH2 / II: Ac-C[NMeR]SDTL[Pen]W[dK]-NH2; disulfide I:1-I:7, II:1-II:7 (inferred); linker I:9-II:9 via Diglycolyl (inferred)), the half-life (Intestinal Wash Assay) was over 3 h and the “Cys/CySS (mV)” value [1] was −204 mV.
In the case of `CC(=O)N[C@@H]1C(=O)N(C)[C@@H](CCCNC(=N)N)C(=O)N[C@@H](CO)C(=O)N[C@@H](CC(=O)O)C(=O)N[C@@H]([C@@H](C)O)C(=O)N[C@@H](CC(C)C)C(=O)N[C@H](C(=O)N[C@@H](Cc2c[nH]c3ccccc23)C(=O)N[C@@H](CCC(=O)O)CC(=O)N[C@H](CCCCNC(=O)COCC(=O)NCCCC[C@@H](NC(=O)C[C@H](CCC(=O)O)NC(=O)[C@H](Cc2c[nH]c3ccccc23)NC(=O)[C@H]2NC(=O)[C@H](CC(C)C)NC(=O)[C@H]([C@@H](C)O)NC(=O)[C@H](CC(=O)O)NC(=O)[C@H](CO)NC(=O)[C@H](CCCNC(=N)N)N(C)C(=O)[C@@H](NC(C)=O)C(C)(C)SSC2(C)C)C(N)=O)C(N)=O)C(C)(C)SSC1(C)C` [compound 213, [Ac-Pen-(N-Me-Arg)-Ser-Asp-Thr-Leu-Pen-Trp-(β-homoGlu)-(D-Lys)-NH2]2-DIG] (I: Ac-[Pen][NMeR]SDTL[Pen]W[β3hE][dK]-NH2 / II: Ac-[Pen][NMeR]SDTL[Pen]W[β3hE][dK]-NH2; disulfide I:1-I:7, II:1-II:7; linker I:10-II:10 via Diglycolyl), the “colon macroscopic and histopathology scores” value [2] is reported as “reduced colon macroscopic and histopathology scores comparable to the antibodies” and the “infiltration of B7+ cells into the lamina propria of the distal colon” value [2] is reported as “reduced infiltration”.
